Publication PMC13021292, “Safety, tolerability and pharmacokinetics of DNDI‐6148, a novel agent for leishmaniasis: A randomized, controlled, single ascending dose study in healthy participants” (British Journal of Clinical Pharmacology, 2025)
Like-named read-outs stand apart in the source and are kept apart here.

Key:
[1] = parameters: method as in earlier work; settings: cited from earlier work
L. donovani [2] = settings: 25 mg/kg BID for five days, oral; cited from earlier work
[3] = Plasma CRP and TNFα pre- and post-dose (exploratory inflammation markers); type: in vivo, human; parameters: CRP plasma concentration, Mean / TNFα plasma concentration, Mean: unit not given here; settings: for CRP change from pre-dose, Mean / CRP change from pre-dose, Median / CRP plasma concentration, Mean / CRP plasma concentration, Median / TNFα change from pre-dose, Mean / TNFα plasma concentration, Mean / TNFα plasma concentration, Median / TNFα change from pre-dose, Median: 6 h post-dose (D1-T6H)
Source text: Recruitment was temporarily interrupted on 16 March 2020 due to confinement measures related to the COVID‐19 outbreak in France. The study resumed on 17 August 2020, allowing for the completion of recruitment for cohorts 2, 3 and 4. Additionally, four participants were included in cohort 5 before suspension of the investigational product (IP) administration on 30 January 2021 as a precaution to assess emerging unexpected data in a non‐clinical Fertility and Early Embryonic Development study. The protocol was further amended to include evaluation of plasma concentrations of C‐reactive protein (CRP) and of tumour necrosis factor alpha (TNFα) pre and post‐dose (6 h) as exploratory markers of possible inflammation. Subsequent cohorts were completed up to the 380 mg dose level (cohort 8) without further interruption of the study.
Exploratory endpoints included ECG parameters compared to baseline and placebo; the exploratory identification of DNDI‐6148 metabolites; and, for the last four participants of the 160 mg cohort and the 220 mg, 300 mg and 380 mg cohorts, the exploratory evaluation of plasma concentrations of CRP and TNFα pre‐ and post‐dose.
(§1) Safety was assessed by monitoring AEs throughout the study. Other safety monitoring included 12‐lead ECG recordings, measurement of vital signs, physical and neurological examinations, haematology, blood biochemistry and urinalysis and, for the last four participants of the 160 mg cohort and onwards, CRP and TNFα.

[4] = parameters: method as in unpublished data; settings: non‐clinical studies ref unpublished data; cited from earlier work
[5] = Safety and tolerability (adverse events), single ascending oral dose study; type: in vivo, human
Protocol: The primary endpoint was assessment of the safety and tolerability of DNDI‐6148 by evaluation of the following parameters: adverse events (AEs), physical examination (including body weight), clinical neurological examination, vital signs, 12‐lead ECG, clinical laboratory (including serum chemistry, haematology, hormonology and urinalysis) and psychological and cognitive examinations.
as §1
To minimize risk, participants were dosed sequentially, using sentinels in each cohort (one receiving DNDI‐6148, one placebo), as per European Medicines Agency guidelines.[12] Stopping criteria used in that study are described in Supplementary Information, Text S2. If the previous dose was well tolerated, with no safety concerns, the Safety Review Committee decided on dose escalation after reviewing blinded safety and PK data from all available cohorts.

L. infantum [6] = settings: 25 mg/kg BID for five days, oral; cited from earlier work
[7] = cited from earlier work
[8] = human, in vivo, po, 220 mg
Protocol: (§2) This was a FIH, phase I, double‐blind, parallel, single ascending dose (SAD) study of DNDI‐6148 arginine monohydrate, administered as an oral suspension to healthy male participants. Cohorts 1–8 each included eight participants and were administered 10, 20, 40, 80, 160, 220, 300 or 380 mg (free form) of DNDI‐6148 (in six participants) or placebo (two participants).
(§3) At the clinical site, a suspension was prepared extemporaneously by the pharmacist within 24 h prior to administration to participants (the timepoint for which stability data of the suspension were available). The IP powder was suspended in 30 mL ORA‐Sweet® (Paddock Laboratories, LLC, Minneapolis, USA) for taste and colour masking. Participants were administered between 4 and 25 mL of the suspensions, followed by the ingestion of 250 mL tap water. Opaque precision syringes were used to administer the solutions to minimize the risk of unblinding. To preclude any dietary effects on the PK of DNDI‐6148, participants fasted for 9 h before they received the IP or placebo. Treatments were administered under the supervision of the investigator at approximately 8 a.m. on Day 1.
(§4) Blood samples (6 mL per time point) for pharmacokinetic analyses were collected on Day 1 pre‐dose and at the following post‐dose time points: 0.5,1, 1.5 (cohorts 1–4 only), 2, 2.5, 3, 4, 5 (cohorts 5–8 only), 6, 9, 12, 24, 48 and 72 h. […] Within 30 min of blood collection, blood samples were centrifuged at 1500g for 10 min at 4 °C and 500 μL of plasma were transferred into pre‐labelled polypropylene tubes prefilled with phosphoric acid 2% (1:1, v:v). Tubes were capped immediately for each time point, and the plasma was frozen in an upright position at −80 °C for storage.
(§5) Concentrations of DNDI‐6148 were determined in acidified plasma and acidified urine/BSA mixture using a validated internally standardized liquid chromatography–tandem mass spectrometry (LC–MS/MS) assay with deuterated d4‐DNDI‐6148 as an internal standard. The lower limit of quantitation (LOQ) for DNDI‐6148 was 1 ng/mL in plasma and 10 ng/mL in urine.
(§6) Values that were below the LOQ before the first concentration equal or above LOQ were set to zero. Other values below the LOQ were not used to calculate the PK parameters. The area under the plasma concentration‐time curve from time zero (pre‐dose) to the time of last quantifiable concentration (AUC0‐last) was calculated using the linear‐log trapezoidal rule. Elimination half‐life (t1/2) was calculated by the equation ln2/λz, after visual inspection of the plasma concentration‐time profiles (considering a minimum of 3 data points, including the last measurable data point and excluding Cmax).
(§7) PK parameters were derived from plasma concentration vs. time data using non‐compartmental analysis in Phoenix WinNonlin® 8.1 (Certara Inc., Princeton, NJ, USA). Plasma concentration vs. time data and PK parameters were listed and summarized by dose level, using descriptive statistics. Mean concentrations were calculated only if at least ⅔ of the individual concentrations were above the lower LOQ (LLOQ). […] Planned sampling times were used to summarize plasma concentration data; actual sampling times were used in the derivation of PK parameters.

[9] = at 1 μM; cited from earlier work
L. infantum [10] = settings: cited from earlier work
[11] = Urinary excretion and renal clearance, single ascending oral dose study; type: in vivo, human; settings: single oral 10–380 mg
Protocol: Urine was collected up to 72 h during the following intervals: pre‐dose, D1T0h – D1T12h, D1T12h – D2T24h, D2T24h – D3T48h and D3T48h – D4T72h. Urine was collected in containers containing 20 g citric acid monohydrate and stored at 4 °C for a maximum of 43 h. All urine passed during each interval period was combined and at the end of the interval, the pool of acidified urine was vigorously mixed; two aliquots were prepared, each with 1 mL of acidified urine and 1 mL of aqueous solution of 50 g/L bovine serum albumin (BSA) and 9 g/L NaCl.
Tubes of acidified urine/BSA samples were capped immediately for each time point and stored at −80 °C. Samples of both acidified plasma and acidified urine/BSA were shipped for bioanalysis on dry ice by a specialized carrier. Temperatures were monitored using a data logger during transport.

L. infantum [12] = settings: 25 mg/kg BID for five or ten days; cited from earlier work
[13] = cited from earlier work; remark: listed apart in the source
[14] = Plasma pharmacokinetics, first-in-human single ascending oral dose study
Protocol: as §2, §3, §4, §5, §6, §7

L. donovani [15] = settings: cited from earlier work
[16] = Cardiac safety: ECG QTcF, QTcG, heart rate; type: in vivo, human
Protocol: as §1
Triplicate ECGs extracted from 24-hour Holter recordings at predefined time points aligned with the pharmacokinetic (PK) sampling were used for additional cardiac safety analyses. […] For the group correction, α was estimated as the slope of the linear relationship between ln(QT) and ln(RR), based on drug-free (placebo and pre-dose) data (Figure S1).

[17] = pH 7.4; cited from earlier work

## CC1(C)OB(O)c2cc(NC(=O)c3ccc(F)cc3C(F)(F)F)ccc21 [acoziborole]
[1]
  metabolism and elimination in humans: slow liver metabolism and predominant hepato‐biliary elimination

## Cc1c(C(=O)Nc2ccc3c(c2)B(O)OC3)nnn1-c1ccccn1 [DNDI‐6148]
L. donovani [2]
  efficacy in L. donovani mouse model of VL: demonstrated efficacy
[3]; 160 mg, n 3
  CRP change from pre-dose, Mean: -0.03
  CRP change from pre-dose, Median: 0.00
  CRP plasma concentration, Mean: 0.80
  CRP plasma concentration, Median: 0.60
  TNFα change from pre-dose, Mean: 0.15
  TNFα plasma concentration, Mean: 2.55
  TNFα plasma concentration, Median: 2.58
[3]; 220 mg, n 6
  CRP change from pre-dose, Mean: -0.03
  CRP change from pre-dose, Median: 0.00
  CRP plasma concentration, Mean: 0.72
  CRP plasma concentration, Median: 0.60
  TNFα change from pre-dose, Mean: -19.68
  TNFα change from pre-dose, Median: -15.26
  TNFα plasma concentration, Mean: 1.77
  TNFα plasma concentration, Median: 1.74
[3]; 300 mg, n 6
  CRP change from pre-dose, Mean: -0.13
  CRP change from pre-dose, Median: -0.15
  CRP plasma concentration, Mean: 2.47
  CRP plasma concentration, Median: 1.15
  TNFα change from pre-dose, Mean: -0.37
  TNFα change from pre-dose, Median: 0.18
  TNFα plasma concentration, Mean: 2.67
  TNFα plasma concentration, Median: 2.62
[3]; 380 mg, n 4
  TNFα change from pre-dose, Mean: 0.33
  TNFα change from pre-dose, Median: 0.32
  TNFα plasma concentration, Mean: 2.82
  TNFα plasma concentration, Median: 2.75
[3]; 380 mg, n 6
  CRP change from pre-dose, Mean: -0.02
  CRP change from pre-dose, Median: 0.00
  CRP plasma concentration, Mean: 0.87
  CRP plasma concentration, Median: 0.60
[3]; last four participants of 160 mg cohort and 220–380 mg cohorts
  plasma CRP and TNFα concentrations post‐dose compared with pre‐dose: not significantly increased
[4]
  blood–brain barrier crossing: cross the blood–brain barrier
[5]; 10 mg (N = 6)
  TEAE Musculoskeletal and connective tissue disorders, participants n (%) [events]: 0
[5]; 80 mg (N = 6)
  TEAE Musculoskeletal and connective tissue disorders, participants n (%) [events]: 0
[5]; 160 mg (N = 6)
  TEAE Musculoskeletal and connective tissue disorders, participants n (%) [events]: 0
[5]; 220 mg (N = 6)
  TEAE Musculoskeletal and connective tissue disorders, participants n (%) [events]: 0
[5]; 380 mg (N = 6)
  TEAE Musculoskeletal and connective tissue disorders, participants n (%) [events]: 0
[5]; in vivo
  TEAEs (events): 10
  participants with TEAEs: 8
  participants with TEAEs, percentage: 14.3%
[5]; single doses 10–380 mg
  maximal tolerated dose: not reached
L. infantum [6]
  efficacy in L. infantum mouse model of VL: demonstrated efficacy
[7]
  CLint in human liver microsomes: below 0.3 μL/min/mg
[8]
  CL/F: 2.55 L/h
[9]
  CLint in hepatocytes: 0.5 μL/min/10^6 cells
L. infantum [10]
  in vitro activity against L. infantum: in the micromolar range
[11]
  fraction of the dose excreted by the kidneys as unchanged drug: below 0.2%
L. infantum [12]
  efficacy by oral route in L. infantum hamster model of VL: demonstrated efficacy
[13]; humans
  unbound fraction in plasma: 6.6%
[13]; species not stated
  plasma protein binding (bound): over 93%
[14]; 10 mg single oral dose, GM
  CL/F: 2.89 L/h
  Cmax: 155 ng/mL
  Vd/F: 52.89 L
  t1/2: 12.7 h
[14]; 10 mg single oral dose, Mean
  CL/F: 2.97 L/h
  Cmax: 156 ng/mL
  Vd/F: 53.52 L
  t1/2: 12.93 h
  tmax: 4 h
[14]; 20 mg single oral dose, GM
  CL/F: 2.76 L/h
  Cmax: 292 ng/mL
  Vd/F: 57.51 L
  t1/2: 14.42 h
[14]; 20 mg single oral dose, Mean
  CL/F: 2.84 L/h
  Cmax: 296 ng/mL
  Vd/F: 57.82 L
  t1/2: 14.73 h
  tmax: 4 h
[14]; 40 mg single oral dose, GM
  CL/F: 2.17 L/h
  Cmax: 585 ng/mL
  Vd/F: 61.18 L
  t1/2: 19.52 h
[14]; 40 mg single oral dose, Mean
  CL/F: 2.36 L/h
  Cmax: 598 ng/mL
  Vd/F: 64.01 L
  t1/2: 19.91 h
  tmax: 5 h
[14]; 80 mg single oral dose, GM
  CL/F: 2.17 L/h
  Cmax: 1011 ng/mL
  Vd/F: 69.86 L
  t1/2: 22.31 h
[14]; 80 mg single oral dose, Mean
  CL/F: 2.51 L/h
  Cmax: 1021 ng/mL
  Vd/F: 71.15 L
  t1/2: 25.43 h
  tmax: 9 h
[14]; 160 mg single oral dose, GM
  CL/F: 2.65 L/h
  Cmax: 1815.3 ng/mL
  Vd/F: 68.6 L
  t1/2: 17.92 h
[14]; 160 mg single oral dose, Mean
  CL/F: 2.83 L/h
  Cmax: 1825.3 ng/mL
  Vd/F: 70.79 L
  t1/2: 18.28 h
  tmax: 5 h
[14]; 220 mg single oral dose, GM
  CL/F: 2.42 L/h
  Cmax: 2285.4 ng/mL
  Vd/F: 80.62 L
  t1/2: 23.10 h
[14]; 220 mg single oral dose, Mean
  Cmax: 2512.3 ng/mL
  Vd/F: 81.32 L
  t1/2: 24.17 h
  tmax: 5.50 h
[14]; 300 mg single oral dose, GM
  CL/F: 3.02 L/h
  Cmax: 2959.3 ng/mL
  Vd/F: 99.99 L
  t1/2: 22.91 h
  tmax: 5.12 h
[14]; 300 mg single oral dose, Mean
  CL/F: 3.28 L/h
  Cmax: 3073.5 ng/mL
  Vd/F: 104.45 L
  t1/2: 23.39 h
  tmax: 5.00 h
[14]; 380 mg single oral dose, GM
  CL/F: 2.22 L/h
  Cmax: 3487.2 ng/mL
  Vd/F: 79.44 L
  t1/2: 24.76 h
  tmax: 5.28 h
[14]; 380 mg single oral dose, Mean
  CL/F: 2.26 L/h
  Cmax: 3606 ng/mL
  Vd/F: 79.82 L
  t1/2: 25.46 h
  tmax: 5.50 h
[14]; 10 and 20 mg doses
  GM half‐life in plasma: around 13 h
[14]; all dose levels
  median tmax, generally: 4 to 6 h
[14]; higher doses
  GM half‐life in plasma: around 20 h
L. donovani [15]
  in vitro activity against L. donovani: in the micromolar range
[16]; 160 mg, 12 h post-dose
  largest mean ΔΔQTcG: 7.24 ms
[16]; 380 mg, 9 h post-dose
  mean ΔΔQTcG: 1.83 ms
[16]; all doses
  QTcG changes from baseline: ≤ 30 ms
  QTcG values: ≤ 450 ms
[16]; any participant
  QTcF value >500 msec or change from baseline QTcF >60 msec: No QTcF value >500 msec or change from baseline QTcF >60 msec was recorded
[16]; any single dose, concentration‐response modelling
  upper limit of the 90% CI of ΔΔQTcF: ≤ 10 ms
[16]; dose of 380 mg, concentration‐response modelling
  maximum effect on ΔΔQTcF, estimated: 1.65 (90% CI: −0.635, 3.94) msec
[17]
  logD: 1.92
